Measured values taken from patent US9149543B2, “Methods and models for rapid, widespread delivery of genetic material to the CNS using non-viral, cationic lipid-mediated vectors” (The Trustees of the University of Pennsylvania, priority 2005, dated 2015).

Assay: DNA protection assay of DMDK lipoplex against DNase and human CSF (agarose gel)
Assay type: in vitro ADME
Conditions: lipoplex incubated with DNAses or human CSF in vitro
Experimental: Naked DNA and DMDK/DNA complexes were incubated at 37° C. for thirty minutes with 1 μl of RQ1 RNase-Free DNase and 10× Reaction Buffer (Promega, Madison, Wis.). One unit of RQ1 RNase-Free DNase (1 unit/μl) is defined as the amount required to completely degrade 1 μg of lambda DNA in 10 minutes at 37° C. in 50 μl of a buffered solution. After 30 minutes of incubation, aliquots were removed and used for transfection or phenol/chloroform extraction.
Incubation and transfection were also carried out in human CSF, obtained under an approved IRB protocol at the University of Pennsylvania, wherein CSF was collected under sterile conditions at the Hospital of the University of Pennsylvania during the normal course of pre-operative spinal anesthetic administration.
An equal volume of phenol/chlororform/isoamyl alcohol was added to the DNA solution. This solution was vortexed for 10 seconds, briefly centrifuged, and the aqueous layer removed and placed in a new tube. 1/10 volume of 3M sodium acetate was added and then vortexed. Next, 2.5 volumes of ice-cold 100% EtOH was added, vortexed and placed in a −70° C. freezer for 15 minutes. The solution was then microcentrifuged for 5 minutes at maximum speed, and the supernatant was removed. 1 ml of 70% EtOH (room temperature) was added, and centrifuged for 5 minutes at maximum speed. The supernatant was removed and the pellet dried. […]

Compound: CCCCCCCCCCCCCCC(=O)C(=O)CCCCCCCCCCCCCC [DMDK, Dimyristyl Diketone]
- protection of plasmid DNA from degradation from DNAses or from human cerebral spinal fluid: effectively protect plasmid DNA from degradation
